Reference: patent publication US8507439B2, “Neuroprotective and neurorestorative method and compositions” (priority 2005, dated 2013)
Residues, ends and D or L forms follow the SMILES beside them. No end group written: not given here. ξ: configuration not given here. *: point of attachment. Lip = lipoic acid (N-terminal), O=C(CCCC[C@@H]1CCSS1)*; Lipoyl(6ξ) = O=C(CCCCC1CCSS1)*

Legend:
N27 dopaminergic cells = assay: Survival of N27 dopaminergic cells in the presence of 300 μM MPP+ neurotoxic agent; format: cell-based, rat
[1] = test system: noradrenergic neurons in the striatum; assay: Survival of noradrenergic neurons in the MPTP mouse model for Parkinson's disease; format: in vivo
Description: Tests were done in the MPTP mouse model for Parkinson's disease.

[2] = test system: SH-SY5Y human neuroblastoma cells; assay: Protection of SH-SY5Y neuroblastoma cells from Yankner peptide (b/A4), LDH content of remaining cells; format: cell-based; conditions: 20 μM Yankner peptide alone
Protocol: A characteristic constituent of Alzheimer's Disease (AD) is the formation of plaques from the 39-43 amino acid long peptide derived from amyloid protein (Selkoe, D. TINS (1993) 16: 403-409). This molecule (b/A4) can be toxic to mammalian nerve cells. […] Yankner et al. (Science (1990) 250: 279-282) has developed this property in a culture method as an AD assay procedure.
Differentiated cultures of SH-SY5Y Human neuroblastoma cells were grown to a stage where the cells formed a network of neurites. […] At day 3, after removal of the supernatant and the debris from dead cells by 3 washes with saline, the cells were then lysed and their LDH content was assayed for cell survival by measuring the LDH present in the remaining cells. The results were compared to LDH present in untreated controls, that were incubated for 3 days with no peptide additives (Table 7). The assay assumes that the LDH content of healthy cells remains constant and can be used as an index of living cells. The experiments using anoxia in our previous work were in agreement with this assumption.
This experiment was performed in the method described above for Example 6, Experiment 1, except that the cells were incubated for 4 days instead of 3 to enhance the degenerative effect of the Yankner peptide. […]

SHSY cells [3] = format: cell-based, human; conditions: 20 μM Yankner peptide alone
Protocol: Aliquots of 3×10^5 SHSY cells were plated in each well of a 24-well microtiter plate in 1 ml of medium containing no peptides (Control=Ctrl), 20 μM Yankner peptide (Yankner), or 20 μM Yankner peptide+75 μM of DQ (SEQ ID NO:2) (Yankner+BTX). Plates were incubated at 37° C. in a 5% CO2 incubator for 3 days, then each well was washed twice with 1×PBS to remove loosely bound cells. The number of remaining cells per ml was determined by microscopy. […] Error bars denote one standard deviation. […] BTX was DQ (SEQ ID NO:2) in this experiment.

SHSY cells [4] = assay: LDH levels in residual surviving SHSY cells after Yankner peptide; format: cell-based, human; conditions: Yankner peptide alone
Protocol: In a tissue culture model for Alzheimer's disease, treatment with the Yankner peptide (amyloid fragment) causes cell death within 3 days. […] By studying the time course of cell death in this culture model for Alzheimer's disease, it was determined that about 60% of the cells die within 24 hrs. When the neuroprotective/neurorestorative peptide of the invention was added to the cells at the 24 hour time point (e.g., 24 hours after the cells were contacted with the Yankner peptide), over 40% of the injured neurons that were destined to die on day 3 were rescued.
Aliquots of 3×10^5 SHSY cells were plated in each well of a 24-well microtiter plate in 1 ml of medium containing no peptides (control=Ctrl), 20 μM Yankner peptide (Yankner), 20 μM Yankner peptide+75 μM DQ peptide (SEQ ID NO:2) added at time of plating (Yankner+BTX Simultaneous), or 20 μM Yankner+75 μM BTX-639 added 24 hr post plating (Yankner+BTX 24 Hr Post). Plates were incubated at 37° C. in a 5% CO2 incubator for 3 days, then each well was washed twice with 1×PBS to remove loosely bound cells. Whole cell lysates were prepared from the remaining attached (viable) cells, and Lactate dehydrogenase (LDH) activity measured as described in methods. The results are illustrated in FIG. 2, in which each histobar represents the mean of 11 independent trials. Error bars denote one standard deviation. […]

[5] = test system: primary rat cortical cultures; assay: Oxygen-glucose deprivation (anoxia) of primary rat cortical cultures, LDH release into extracellular medium; format: cell-based
Protocol: Peptides of the invention have been examined for neuroprotective activity in primary rat cortical cultures. […] It rescued 90-100% of the neurons that were exposed to a 3 hour oxygen-glucose deprivation (OGD).
For the tests, primary mixed neuron-glia rat cortical cultures were grown to 80-95% confluence, as previously described (Shashoua, V. E. et al., Brain Res. (2004) 1024(1-2):34-43). Their neurons were grown over a layer of glia cells and formed a network of processes. Such cultures, after a 5× wash in oxygen-free (air displaced by argon) Hanks Balanced Salt Solution (HBSS) (Shashoua, V. E. et al., Brain Res. (2004) 1024(1-2):34-43) buffer, which contained no glucose, serum, and growth factors, were transferred for 3 hrs into the Form a Scientific Anaerobic Chamber (Thermo Forma, Marietta, Ohio) (Goldberg, M. P. and Choi, D. W. J Neurosci. (1993) 13(8):3510-3524) in an atmosphere of N2, CO2 and H2 (85%, 5%, and 10%). After exposure to oxygen-glucose deprivation (OGD) the neurons, retract their processes and generate vacuoles in their perikarya. […] Large increases (about 250%) in the release of lactic acid dehydrogenase (LDH, a marker of cell injury) into the extra-cellular medium occurred. For the test of glucose-oxygen deprivation on the release of lactic acid dehydrogenase as a function of time by primary rat cortical cultures, the LDH assay of extracellular fluid (1 ml aliquots) for cultures from cells were incubated for 24 hours under normoxia conditions and were compared with cells exposed up to 4 hours of anoxia in HBSS medium followed by normoxia medium for a total period of 24 hours. LDH was measured as absorbance at 490 nm, n=6 per time point (Shashoua, V. E. et al., Brain Res. (2004) 1024(1-2):34-43) (see Table 2). Assays and detection were performed according to manufacturer's instructions using a Promega Cyto Tox 96, a nonradioactive cytotoxicity assay kit (Promega, Madison, Wis.).
For these experiments there were n=6 per assay, and a 3 hour treatment of anoxia was followed by 21 hours of normoxia reperfusion. SEQ ID NO:1 was added at 1 hour post initiation of anoxia and was also present during the 21 hours of reperfusion. […] The results for SEQ ID NO:1 as well as the results for SEQ ID NOs:3 and 4, which are shown in Tables 3 and 4 give results of LDH assay that was done on supernatant of extracellular medium.

[6] = 300 μM MPP+ + 14 μM peptide, n = 8

In the case of `C[n+]1ccc(-c2ccccc2)cc1` [MPP+, 1-methyl-4-phenylpyridinium, reference compound], the “% Rescue after Treatment for 0 hours” value (N27 dopaminergic cells; 300 μM MPP+ alone) is reported as 100 ± 2%, the “% Rescue after Treatment for 24 hours” value (N27 dopaminergic cells; 300 μM MPP+ alone) is reported as 0 ± 3% and the “% Rescue after Treatment for 48 hours” value (N27 dopaminergic cells; 300 μM MPP+ alone) is reported as 0 ± 4%.

`CN1CC=C(c2ccccc2)CC1` [MPTP, 1-methyl-4-phenyl-1,2,3,6 tetrahydropyridine, reference compound] was tested, and the neurons that survive ([1]; 4 days following an IP injection 30 mg/Kg of MPTP, no peptide) was 12.5%.

`CC[C@H](C)[C@H](NC(=O)[C@H](C)NC(=O)CNC(=O)[C@H](CCCCN)NC(=O)[C@H](CC(N)=O)NC(=O)[C@H](CO)NC(=O)CN)C(=O)N[C@H](C(=O)NCC(=O)N[C@@H](CC(C)C)C(=O)N[C@@H](CCSC)C(=O)O)[C@@H](C)CC` [Yankner peptide] (H-GSNKGAIIGLM-OH) was tested, and the “OD 490 nm” value ([2]; 3 days) was 0.568 OD 490 nm, the “OD 490 nm” value ([2]; 4 days) was 0.127 OD 490 nm and the cell death (SHSY cells [3]) was 50%. For the same compound, the “cells that die within 24 hrs” value (SHSY cells [4]) was “about 60%”.

In the case of `CC(C)[C@H](NC(=O)[C@H](CCC(=O)O)NC(=O)CCCCC1CCSS1)C(=O)N[C@@H](CC(=O)O)C(=O)N[C@@H](CC(=O)O)C(=O)N[C@@H](CC(=O)O)C(=O)N[C@@H](CCC(N)=O)C(=O)O` (stereo partly drawn) [[Lip]-EVDDDQ] ({Lipoyl(6ξ)}-EVDDDQ-OH; C-terminus assumed), the “passage through the Blood-Brain Barrier (in words)” value ([1]; concluded from the in vivo effect) is reported as “can get through the Blood-Brain Barrier”.

EVDDDQ [SEQ ID NO: 1] was tested, and the “reversal of the effects of anoxia / neuroprotection from anoxia (in words)” value [5] was “active in reversing the effects of anoxia”, the “effects of anoxia, cell morphology and LDH release (in words)” value ([5]; 1 ng/ml up to 10 ng/ml in the media, even after the 3 hr OGD treatment, 21 hours normoxia reperfusion) was “all the effects of anoxia were reversed and cell morphology and LDH release returned to normal” and the “LDH (A 490 nm)” value ([5]; Table 3, anoxia + 1 ng/ml) was 0.33 ± .02 A 490 nm. The “LDH Released % of Normoxia” value ([5]; Table 3, anoxia + 1 ng/ml) was 100 % of Normoxia, the “LDH (A 490 nm)” value ([5]; Table 3, anoxia + 10 ng/ml) was 0.22 ± .03 A 490 nm and the “LDH Released % of Normoxia” value ([5]; Table 3, anoxia + 10 ng/ml) was 68 % of Normoxia. For the same compound, the “LDH (A 490 nm)” value ([5]; Table 3, anoxia + 100 ng/ml) was 0.161 ± .04 A 490 nm, the “LDH Released % of Normoxia” value ([5]; Table 3, anoxia + 100 ng/ml) was 50 % of Normoxia and the “LDH release compared with normoxia controls (in words)” value ([5]; high doses) was “decreased LDH release to lower amounts than those present in normoxia controls”. The neurons rescued ([5]; neurons exposed to a 3 hour oxygen-glucose deprivation (OGD)) was 90-100%, the “% Rescue after Treatment for 24 hours” value (N27 dopaminergic cells; 300 μM MPP+ + 14 μM (10 μg/ml) peptide, n = 8) was 82 ± 2% and the “% Rescue after Treatment for 24 hours” value (N27 dopaminergic cells; 300 μM MPP+ + 14 μM (10 μg/ml) peptide, n = 8, listed as SEQ ID NO:1) was 82%. For the same compound, the “% Rescue after Treatment for 0 hours” value (N27 dopaminergic cells; [6]) was 100 ± 2% and the “% Rescue after Treatment for 48 hours” value (N27 dopaminergic cells; [6]) was 56 ± 4%.

In the case of QDDDVE, the “reversal of the effects of anoxia / neuroprotection from anoxia (in words)” value [5] is reported as “reverse effects of anoxia”.

For VFTPPS, the “reversal of the effects of anoxia / neuroprotection from anoxia (in words)” value [5] was “reverse effects of anoxia”.

For [Ac]-QDDDVE (Ac-QDDDVE), the “LDH (A 490 nm)” value ([5]; Table 4, anoxia + 1 ng/ml) was 0.33 ± 0.02 A 490 nm, the “LDH Released % of Normoxia” value ([5]; Table 4, anoxia + 1 ng/ml) was 100 ± 6 % of Normoxia and the “LDH (A 490 nm)” value ([5]; Table 4, anoxia + 10 ng/ml) was 0.22 ± 0.04 A 490 nm. For the same compound, the “LDH Released % of Normoxia” value ([5]; Table 4, anoxia + 10 ng/ml) was 67 ± 12 % of Normoxia, the “LDH (A 490 nm)” value ([5]; Table 4, anoxia + 100 ng/ml) was 0.16 ± 0.05 A 490 nm and the “LDH Released % of Normoxia” value ([5]; Table 4, anoxia + 100 ng/ml) was 48 ± 15 % of Normoxia. The “% Rescue per Treatment time 0 hours” value (N27 dopaminergic cells; 42 μM peptide + 300 μM MPP+) was 100 ± 2%, the “% Rescue per Treatment time 24 hours” value (N27 dopaminergic cells; 42 μM peptide + 300 μM MPP+) was 42 ± 4% and the “% Rescue per Treatment time 48 hours” value (N27 dopaminergic cells; 42 μM peptide + 300 μM MPP+) was 27 ± 3%.

For “[Lip]-VFTPPS (Lip-VFTPPS) [VFTPPS conjugated to lipoic acid at the N-terminal amino acid]”, the “reversal of the effects of anoxia / neuroprotection from anoxia (in words)” value [5] was “promote neuroprotection from anoxia”, the “LDH (A 490 nm)” value ([5]; Table 4, anoxia + 10 ng/ml) was 0.56 ± 0.08 A 490 nm and the “LDH Released % of Normoxia” value ([5]; Table 4, anoxia + 10 ng/ml) was 169 ± 24 % of Normoxia. The “LDH (A 490 nm)” value ([5]; Table 4, anoxia + 100 ng/ml) was 0.37 ± 0.04 A 490 nm and the “LDH Released % of Normoxia” value ([5]; Table 4, anoxia + 100 ng/ml) was 112 ± 12 % of Normoxia.
